According to US12162890B2 (Novartis AG, priority 2015, dated 2024):

Biological target: HEK293 cells with stable expression of the GRIN1 gene and tetracycline-inducible expression of the GRIN2B gene (NMDA receptor, NR2B) (Homo sapiens, UniProt Q13224)
Experiment: Fluo-8 Ca2+ flux assay: reversal of Ro 25-6981-mediated suppression of the Ca2+ response to co-agonist (glutamate/glycine); further: test concentration or dose not given here
Format: cell-based
Conditions: reversal of the Ro 25-6981 suppression of the Ca2+ response to co-agonist (glutamate/glycine)

Chain of HEK293 cells with stable expression of the GRIN1 gene and tetracycline-inducible expression of the GRIN2B gene (NMDA receptor, NR2B) (Q13224 27-1484, other chains not shown): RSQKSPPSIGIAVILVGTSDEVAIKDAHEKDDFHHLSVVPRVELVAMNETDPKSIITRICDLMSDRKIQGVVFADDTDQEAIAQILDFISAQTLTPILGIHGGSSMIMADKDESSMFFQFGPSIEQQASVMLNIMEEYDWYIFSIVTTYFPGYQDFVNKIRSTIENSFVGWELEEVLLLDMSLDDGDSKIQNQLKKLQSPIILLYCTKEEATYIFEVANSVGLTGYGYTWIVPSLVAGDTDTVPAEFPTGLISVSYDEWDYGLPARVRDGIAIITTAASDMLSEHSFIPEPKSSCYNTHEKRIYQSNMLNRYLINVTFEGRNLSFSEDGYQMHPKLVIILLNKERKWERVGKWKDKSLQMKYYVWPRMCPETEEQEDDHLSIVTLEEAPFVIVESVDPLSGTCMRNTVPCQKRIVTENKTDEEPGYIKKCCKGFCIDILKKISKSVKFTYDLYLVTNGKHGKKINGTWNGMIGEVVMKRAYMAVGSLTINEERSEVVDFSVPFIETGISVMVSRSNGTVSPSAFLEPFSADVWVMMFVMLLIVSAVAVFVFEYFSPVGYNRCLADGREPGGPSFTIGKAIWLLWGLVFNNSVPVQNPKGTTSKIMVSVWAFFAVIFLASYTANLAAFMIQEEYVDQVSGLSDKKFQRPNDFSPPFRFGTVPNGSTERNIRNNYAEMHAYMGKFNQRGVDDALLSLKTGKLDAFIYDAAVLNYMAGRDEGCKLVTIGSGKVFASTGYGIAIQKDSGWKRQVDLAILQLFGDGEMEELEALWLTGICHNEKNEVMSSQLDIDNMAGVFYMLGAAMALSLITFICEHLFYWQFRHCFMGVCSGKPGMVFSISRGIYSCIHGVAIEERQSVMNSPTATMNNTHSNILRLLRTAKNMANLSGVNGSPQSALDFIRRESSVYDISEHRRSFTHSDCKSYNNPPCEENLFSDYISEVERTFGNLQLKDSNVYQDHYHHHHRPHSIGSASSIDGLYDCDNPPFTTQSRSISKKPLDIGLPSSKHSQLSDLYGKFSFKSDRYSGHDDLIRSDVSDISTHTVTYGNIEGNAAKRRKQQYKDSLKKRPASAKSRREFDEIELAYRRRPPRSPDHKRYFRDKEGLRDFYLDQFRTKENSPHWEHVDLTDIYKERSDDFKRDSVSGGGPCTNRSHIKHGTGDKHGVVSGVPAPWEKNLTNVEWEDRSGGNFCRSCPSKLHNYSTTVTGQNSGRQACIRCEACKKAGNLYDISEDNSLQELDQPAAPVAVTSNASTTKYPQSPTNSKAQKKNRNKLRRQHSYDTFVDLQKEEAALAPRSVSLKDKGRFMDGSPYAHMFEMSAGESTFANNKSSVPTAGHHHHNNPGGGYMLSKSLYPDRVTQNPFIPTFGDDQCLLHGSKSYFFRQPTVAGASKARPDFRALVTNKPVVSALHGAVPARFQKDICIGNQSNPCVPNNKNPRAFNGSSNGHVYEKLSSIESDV

SMILES	Response Recovered (%)
C[Si](C)(C)CCOCn1cc(-c2ccc(F)c(Cl)c2)c2c(=O)n(CC(=O)N3CCCC3)ccc21 [Example 205, 3-(3-chloro-4-fluorophenyl)-5-(2-oxo-2-(pyrrolidin-1-yl)ethyl)-1-((2-(trimethylsilyl)ethoxy)methyl)-1H-pyrrolo[3,2-c]pyridin-4(5H)-one]	59
O=C(Cn1ccc2scc(-c3ccc(F)c(Cl)c3)c2c1=O)N1CCC1 [Example 46, 5-(2-(azetidin-1-yl)-2-oxoethyl)-3-(3-chloro-4-fluorophenyl)thieno[3,2-c]pyridin-4(5H)-one]	26
O=C(Cn1cnc2[nH]cc(-c3cnc(Cl)c(C(F)(F)F)c3)c2c1=O)N1CCC(F)C1 (stereo not drawn) [Example 183, 5-(6-chloro-5-(trifluoromethyl)pyridin-3-yl)-3-(2-(3-fluoropyrrolidin-1-yl)-2-oxoethyl)-3H-pyrrolo[2,3-d]pyrimidin-4(7H)-one]	14
O=C(Cn1cnc2occ(-c3ccc(Cl)cc3)c2c1=O)N1CCC(C(F)(F)F)C1 (stereo not drawn) [Example 387, 5-(4-chlorophenyl)-3-(2-oxo-2-(3-(trifluoromethyl)pyrrolidin-1-yl)ethyl)furo[2,3-d]pyrimidin-4(3H)-one]	7
O=C(Cn1ccc2scc(-c3ccc(F)c(C(F)(F)F)c3)c2c1=O)N1CC[C@@H](F)C1 [Example 27, (R)-3-(4-fluoro-3-(trifluoromethyl)phen-yl)-5-(2-(3-fluoropyrrolidin-1-yl)-2-oxoethyl)thieno[3,2-c]pyridin-4(5H)-one]	81
O=C(Cn1ccc2scc(-c3ccc(Cl)c(Cl)c3)c2c1=O)N1C[C@@H](F)[C@@H](F)C1 [Example 16, 3-(3,4-dichlorophenyl)-5-(2-((3S,4R)-3,4-difluoropyrrolidin-1-yl)-2-oxoethyl)thieno[3,2-c]pyridin-4(5H)-one]	107
O=C(Cn1ccc2scc(-c3ccc(F)c(Cl)c3)c2c1=O)N1CC[C@@H](F)C1 [Example 41, (R)-3-(3-chloro-4-fluorophenyl)-5-(2-(3-fluoropyrrolidin-1-yl)-2-oxoethyl)thieno[3,2-c]pyridin-4(5H)-one]	77
CC1(F)CN(C(=O)Cn2ccc3scc(-c4cnc(Cl)nc4)c3c2=O)C1 [Example 140, 3-(2-chloropyrimidin-5-yl)-5-(2-(3-fluoro-3-methylazetidin-1-yl)-2-oxoethyl)thieno[3,2-c]pyridin-4(5H)-one]	3.1
O=C(Cn1ccc2scc(-c3ccc(F)c(C(F)(F)F)c3)c2c1=O)N1CC(F)(CF)C1 [Example 83, 5-(2-(3-fluoro-3-(fluoromethyl)azetidin-1-yl)-2-oxoethyl)-3-(4-fluoro-3-(trifluoromethyl)phen-yl)thieno[3,2-c]pyridin-4(5H)-one]	140
O=C(Cn1ccc2scc(-c3ccc(F)c(C(F)(F)F)c3)c2c1=O)N1CC(F)C1 [Example 32, 3-(4-fluoro-3-(trifluoromethyl)phen-yl)-5-(2-(3-fluoroazetidin-1-yl)-2-oxoethyl)thieno[3,2-c]pyridin-4(5H)-one]	60
C[Si](C)(C)CCOCn1cc(-c2ccc(Cl)c(C(F)(F)F)c2)c2c(=O)n(CC(=O)N3CCC(F)C3)ccc21 (stereo not drawn) [Example 199, 3-(4-chloro-3-(trifluoromethyl)phenyl)-5-(2-(3-fluoropyrrolidin-1-yl)-2-oxoethyl)-1-((2-(trimethylsilyl)ethoxy)methyl)-1H-pyrrolo[3,2-c]pyridin-4(5H)-one]	47
O=C(Cn1cnc2c(c(-c3ccc(Cl)c(C(F)(F)F)c3)cn2CCF)c1=O)N1CCCC1 [Example 149, 5-(4-chloro-3-(trifluoromethyl)phenyl)-7-(2-fluoroethyl)-3-(2-oxo-2-(pyrrolidin-1-yl)ethyl)-3H-pyrrolo[2,3-d]pyrimidin-4(7H)-one]	64
Cn1cc(-n2cc(-c3ccc(F)c(C(F)(F)F)c3)c3c(=O)n(CC(=O)N4CCC(F)C4)ccc32)cn1 (stereo not drawn) [Example 234]	80
NC(=O)Cn1ccc2[nH]cc(-c3ccc(F)c(Cl)c3)c2c1=O [Example 255, 2-(3-(3-chloro-4-fluorophenyl)-4-oxo-1H-pyrrolo[3,2-c]pyridin-5(4H)-yl)acetamide]	−1
O=C(Cn1ccc2scc(-c3ccc(F)c(Cl)c3)c2c1=O)N1CC[C@H](F)C1 [Example 40, (S)-3-(3-chloro-4-fluorophenyl)-5-(2-(3-fluoropyrrolidin-1-yl)-2-oxoethyl)thieno[3,2-c]pyridin-4(5H)-one]	46
O=C(Cn1cnc2[nH]cc(-c3ccc(Cl)c(C(F)(F)F)c3)c2c1=O)N1CCC(F)C1 (stereo not drawn) [Example 177, 5-(4-chloro-3-(trifluoromethyl)phenyl)-3-(2-(3-fluoropyrrolidin-1-yl)-2-oxoethyl)-3H-pyrrolo[2,3-d]pyrimidin-4(7H)-one]	85
O=C(Cn1ccc2c(c(-c3ccc(Cl)c(Cl)c3)cn2C2CC2)c1=O)N1CCC(F)C1 (stereo not drawn) [Example 233, 1-cyclopropyl-3-(3,4-dichlorophenyl)-5-(2-(3-fluoropyrrolidin-1-yl)-2-oxoethyl)-1H-pyrrolo[3,2-c]pyridin-4(5H)-one]	85
CC1(O)CN(C(=O)Cn2ccc3scc(-c4ccc(F)c(Cl)c4)c3c2=O)C1 [Example 58, 3-(3-chloro-4-fluorophenyl)-5-(2-(3-hydroxy-3-methylazetidin-1-yl)-2-oxoethyl)thieno[3,2-c]pyridin-4(5H)-one]	10
O=C(Cn1ccc2scc(-c3ccc(F)c(C(F)(F)F)c3)c2c1=O)N1CC2C(C1)C2(F)F (stereo not drawn) [Example 72, 5-(2-(6,6-difluoro-3-azabicyclo[3.1.0]hex-an-3-yl)-2-oxoethyl)-3-(4-fluoro-3-(trifluoromethyl)phen-yl)thieno[3,2-c]pyridin-4(5H)-one]	37
O=C(Cn1ccc2scc(-c3ccc(F)c(Cl)c3)c2c1=O)N1CCCC1 [Example 3, 3-(3-chloro-4-fluorophenyl)-5-(2-oxo-2-(pyrrolidin-1-yl)ethyl)thieno[3,2-c]pyridin-4(5H)-one]	60

Results, then the molecule that gave them:

Response Recovered (%)	SMILES
46	O=C(Cn1ccc2cccc(-c3ccc(F)c(Cl)c3)c2c1=O)N1CCCC1 [Example 303, 8-(3-chloro-4-fluorophenyl)-2-(2-oxo-2-(pyrrolidin-1-yl)ethyl)isoquinolin-1(2H)-one]
96	O=C(Cn1ccc2c(c(-c3ccc(F)c(C(F)(F)F)c3)cn2-c2ncccn2)c1=O)N1CCC(F)C1 (stereo not drawn) [Example 243, 3-(4-fluoro-3-(trifluoromethyl)phenyl)-5-(2-(3-fluoropyrrolidin-1-yl)-2-oxoethyl)-1-(pyrimidin-2-yl)-1H-pyrrolo[3,2-c]pyridin-4(5H)-one]
58	CC1(F)CN(C(=O)Cn2ccn3ccc(-c4cnc(Cl)c(Cl)c4)c3c2=O)C1 [Example 404, 8-(5,6-dichloropyridin-3-yl)-2-(2-(3-fluoro-3-methylazetidin-1-yl)-2-oxoethyl)pyrrolo[1,2-a]pyrazin-1(2H)-one]
78	O=C(Cn1ccc2cccc(-c3ccc(Cl)c(Cl)c3)c2c1=O)N1CCCC1 [Example 308]
25	O=C(Cn1ccc2cccc(-c3ccc(Cl)c(F)c3)c2c1=O)N1CCC(F)C1 (stereo not drawn) [Example 306, 8-(4-chloro-3-fluorophenyl)-2-(2-(3-fluoropyrrolidin-1-yl)-2-oxoethyl)isoquinolin-1(2H)-one]
8	O=C(Cn1cnc2occ(-c3ccc(Cl)cc3)c2c1=O)N1CCCC1 [Example 388, 5-(4-chlorophenyl)-3-(2-oxo-2-(pyrrolidin-1-yl)ethyl)furo[2,3-d]pyrimidin-4(3H)-one]
65	CC1(F)CN(C(=O)Cn2ccn3c(C4CC4)nc(-c4cnc(Cl)c(Cl)c4)c3c2=O)C1 [Example 437, 3-cyclopropyl-1-(5,6-dichloropyridin-3-yl)-7-(2-(3-fluoro-3-methylazetidin-1-yl)-2-oxoethyl)imidazo[1,5-a]pyrazin-8(7H)-one]
4	O=C(Cn1cnc2[nH]nc(-c3ccc(Cl)c(F)c3)c2c1=O)N1CCCC1 [Example 319, 3-(4-chloro-3-fluorophenyl)-5-(2-oxo-2-(pyrrolidin-1-yl)ethyl)-1H-pyrazolo[3,4-d]pyrimidin-4(5H)-one]
140	CC1(F)CN(C(=O)Cn2ccc3c(c(-c4ccc(F)c(C(F)(F)F)c4)cn3C3CC3)c2=O)C1 [Example 287, 1-cyclopropyl-3-(4-fluoro-3-(trifluoromethyl)phenyl)-5-(2-(3-fluoro-3-methylazetidin-1-yl)-2-oxoethyl)-1H-pyrrolo[3,2-c]pyridin-4(5H)-one]
130	Cn1cc(-n2cc(-c3ccc(F)c(Cl)c3)c3c(=O)n(CC(=O)N4CC(C)(F)C4)ccc32)cn1 [Example 286, 3-(3-chloro-4-fluorophenyl)-5-(2-(3-fluoro-3-methylazetidin-1-yl)-2-oxoethyl)-1-(1-methyl-1H-pyrazol-4-yl)-1H-pyrrolo[3,2-c]pyridin-4(5H)-one]
33	Cc1cc(-c2ccn3ccn(CC(=O)N4CC(F)(CF)C4)c(=O)c23)cnc1Cl [Example 409, 8-(6-chloro-5-methylpyridin-3-yl)-2-(2-(3-fluoro-3-(fluoromethyl)azetidin-1-yl)-2-oxoethyl)pyrrolo[1,2-a]pyrazin-1(2H)-one]
40	O=C(Cn1ccn2ncc(-c3ccc(F)c(C(F)(F)F)c3)c2c1=O)N1CCCC1 [Example 323, 3-(4-fluoro-3-(trifluoromethyl)phenyl)-5-(2-oxo-2-(pyrrolidin-1-yl)ethyl)pyrazolo[1,5-a]pyrazin-4(5H)-one]
6	O=C(Cn1nnc2scc(-c3ccc(F)c(Cl)c3)c2c1=O)N1CCCC1 [Example 330, 5-(3-chloro-4-fluorophenyl)-3-(2-oxo-2-(pyrrolidin-1-yl)ethyl)thieno[2,3-d][1,2,3]triazin-4(3H)-one]
